The values below come from US10548899B2, “Quinazolinone and benzotriazinone compounds with cholinergic muscarinin M1 receptor positive allosteric modulator activity” (TAKEDA PHARMACEUTICAL COMPANY LIMITED, priority 2015, dated 2020).

The target in this assay is T1, human M1 receptor (hCHRM1) (Homo sapiens, UniProt P11229).
T1 construct: expressed in transfected cells; host or cells: CHO-K1
T1 sequence (P11229 1-460): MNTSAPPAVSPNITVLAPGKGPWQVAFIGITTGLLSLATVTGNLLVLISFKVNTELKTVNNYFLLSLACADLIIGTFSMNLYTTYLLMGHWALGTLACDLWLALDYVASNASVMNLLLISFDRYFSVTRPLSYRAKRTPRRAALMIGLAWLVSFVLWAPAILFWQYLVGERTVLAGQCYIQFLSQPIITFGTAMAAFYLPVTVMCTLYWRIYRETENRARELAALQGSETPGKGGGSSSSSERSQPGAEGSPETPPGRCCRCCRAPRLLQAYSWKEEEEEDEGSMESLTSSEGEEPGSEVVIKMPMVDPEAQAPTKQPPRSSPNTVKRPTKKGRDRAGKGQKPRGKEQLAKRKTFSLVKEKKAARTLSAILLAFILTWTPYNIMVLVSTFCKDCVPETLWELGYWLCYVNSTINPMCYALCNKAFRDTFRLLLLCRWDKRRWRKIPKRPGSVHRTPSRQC
Nature of the assay: Measurement of M1 receptor positive allosteric modulator (M1PAM) activity (calcium fluorescence, Fluo-4, FDSS). The class given is cell-based. Conditions: for activity (%) at 10 μM: 10 μM test compound, acetylcholine EC20 (final 0.8 nM) present, 100% = acetylcholine 1 μM, 0% = DMSO, CHO-K1 hCHRM1 cells; for EC50: inflection point of concentration-dependent curve, CHO-K1 cells stably expressing hCHRM1, in presence of acetylcholine at EC20 concentration (final 0.8 nM), read-out: IP value. On the procedure: Measurement of M1 receptor positive allosteric modulator (M1PAM) activity
The activity of a test compound in the presence of acetylcholine at EC20 concentration (final concentration 0.8 nM), which affords an action corresponding to about 20% of the maximum activity, was measured as PAM activity. The method is as follows. CHO-K1 cells stably expressing a human M1 receptor (hCHRM1) were plated on a 384-well black clear bottom plate (BD Falcon) at 5,000 cells/well, and cultured in an incubator at 37° C., 5% CO2 for 1 day. The medium in the cell plate was removed, and assay buffer A containing a calcium indicator (Recording medium (DOJINDO LABORATORIES), 0.1% BSA (Wako Pure Chemical Industries, Ltd.), 2.5 μg/mL Fluo-4 AM (DOJINDO LABORATORIES), 0.08% Pluronic F127 (DOJINDO LABORATORIES) and 1.25 mM probenecid (DOJINDO LABORATORIES) were added at 30 μL/well. The cells were left standing in the incubator at 37° C., 5% CO2 for 30 min, and further left standing at room temperature for 30 min. A test compound prepared by diluting with assay buffer B (HESS (Invitrogen), 20 mM HEPES (Invitrogen), 0.1% BSA) containing 3.2 nM acetylcholine was added at 10 μL/well, and the fluorescence was measured by FDSS/μcell (Hamamatsu Photonics K.K.) for 1 min every for 1 second. With the definition that the amount of change in the fluorescence on addition of acetylcholine (final concentration 1 μM) is 100% and that on addition of DMSO instead of a test compound is 0%, the activity (%) of the test compound was calculated, and the inflection point in the concentration-dependent curve of the test compound was calculated as IP values.

For the compound `Cc1c(Cc2ccc(-n3cccn3)cc2)cc2c(=O)n([C@H]3CCCC[C@@H]3O)cnc2c1C` (relative stereo) [Example 1, 3-(trans-2-hydroxycyclohexyl)-7,8-dimethyl-6-(4-(1H-pyrazol-1-yl)benzyl)quinazolin-4(3H)-one], the “activity (%) at 10 μM” value was found to be 92% and the EC50 turned out to be 52 nM.
On to `Cc1c(Cc2ccc(-n3cccn3)cc2)cc2c(=O)n([C@H]3CCC[C@@H]3O)cnc2c1C` (relative stereo) [Example 2, 3-(trans-2-hydroxycyclopentyl)-7,8-dimethyl-6-(4-(1H-pyrazol-1-yl)benzyl)quinazolin-4(3H)-one], for which the “activity (%) at 10 μM” value is 96% and the EC50 stood at 61 nM.
Regarding `Cc1c(Cc2ccc(-n3cccn3)cc2)cc2c(=O)n([C@H]3COCC[C@@H]3O)cnc2c1C` (relative stereo) [Example 3, 3-(trans-4-hydroxytetrahydro-2H-pyran-3-yl)-7,8-dimethyl-6-(4-(1H-pyrazol-1-yl)benzyl)quinazolin-4(3H)-one], the “activity (%) at 10 μM” value is recorded as 98% and the EC50 amounted to 15 nM.
On the same counts, the results for `Cc1c(Cc2ccc(-c3cn(C)nn3)cc2)cc2c(=O)n([C@H]3CCC[C@@H]3O)cnc2c1C` (relative stereo) [Example 11, 3-(trans-2-hydroxycyclopentyl)-7,8-dimethyl-6-(4-(1-methyl-1H-1,2,3-triazol-4-yl)benzyl)quinazolin-4(3H)-one] are 101% and 15 nM.
On the same counts, the results for `Cc1cc(-c2ccc(Cc3cc4c(=O)n([C@H]5CCC[C@@H]5O)cnc4c(C)c3C)cn2)ccn1` (relative stereo) [Example 12, 3-(trans-2-hydroxycyclopentyl)-7,8-dimethyl-6-((2′-methyl-2,4′-bipyridin-5-yl)methyl)quinazolin-4(3H)-one] are 99% and 39 nM.
Take `Cc1c(Cc2ccc(-c3cn(C)nn3)nc2)cc2c(=O)n([C@H]3CCC[C@@H]3O)cnc2c1C` (relative stereo) [Example 14, 3-(trans-2-hydroxycyclopentyl)-7,8-dimethyl-6-((6-(1-methyl-1H-1,2,3-triazol-4-yl)pyridin-3-yl)methyl)quinazolin-4(3H)-one]: the “activity (%) at 10 μM” value is recorded as 100% and the EC50 came out at 11 nM.
In the case of `Cc1c(Cc2ccc(-c3cnn(C)c3)nc2)cc2c(=O)n([C@H]3CCC[C@@H]3O)cnc2c1C` (relative stereo) [Example 15, 3-(trans-2-hydroxycyclopentyl)-7,8-dimethyl-6-((6-(1-methyl-1H-pyrazol-4-yl)pyridin-3-yl)methyl)quinazolin-4(3H)-one], the “activity (%) at 10 μM” value is 100% and the EC50 is 11 nM.
Turning to `Cc1c(Cc2ccc(-c3cnn(C)c3)cc2)cc2c(=O)n([C@H]3CCC[C@@H]3O)cnc2c1C` (relative stereo) [Example 17, 3-(trans-2-hydroxycyclopentyl)-7,8-dimethyl-6-(4-(1-methyl-1H-pyrazol-4-yl)benzyl)quinazolin-4(3H)-one], the “activity (%) at 10 μM” value came to 90% and the EC50 was found to be 55 nM.
On the same counts, the results for `Cc1c(Cc2ccc(Cl)nc2)cc2c(=O)n([C@H]3CCCC[C@@H]3O)cnc2c1C` (relative stereo) [Example 19, 6-((6-chloropyridin-3-yl)methyl)-3-(trans-2-hydroxycyclohexyl)-7,8-dimethylquinazolin-4(3H)-one] are 97% and 66 nM.
For the compound `COc1cc(Cc2ccc(-c3cnn(C)c3)cc2)cc2c(=O)n([C@H]3CCC[C@@H]3O)cnc12` (relative stereo) [Example 20, 3-(trans-2-hydroxycyclopentyl)-8-methoxy-6-(4-(1-methyl-1H-pyrazol-4-yl)benzyl)quinazolin-4(3H)-one], the “activity (%) at 10 μM” value is recorded as 97% and the EC50 is 61 nM.
For `Cc1cc2ncn([C@H]3CCC[C@@H]3O)c(=O)c2cc1Cc1ccc(-c2cn(C)nn2)cc1` (relative stereo) [Example 21, 3-(trans-2-hydroxycyclopentyl)-7-methyl-6-(4-(1-methyl-1H-1,2,3-triazol-4-yl)benzyl)quinazolin-4(3H)-one], in that order: 97% and 51 nM.
For `Cc1ccc(Cc2cc3c(=O)n([C@H]4CCCC[C@@H]4O)cnc3c(C)c2C)cn1` (relative stereo) [Example 35, 3-(trans-2-hydroxycyclohexyl)-7,8-dimethyl-6-((6-methylpyridin-3-yl)methyl)quinazolin-4(3H)-one], in that order: 96% and 41 nM.
Take `Cc1c(Cc2ccc(-c3cn(C)nn3)cc2)cc2c(=O)n([C@H]3CCC[C@@H]3O)nnc2c1C` (relative stereo) [Example 40, 3-(trans-2-hydroxycyclopentyl)-7,8-dimethyl-6-(4-(1-methyl-1H-1,2,3-triazol-4-yl)benzyl)-1,2,3-benzotriazin-4(3H)-one]: the “activity (%) at 10 μM” value came to 94% and the EC50 worked out at 70 nM.
On the same counts, the results for `Cc1c(Cc2ccc(-n3ccnc3)nc2)cc2c(=O)n([C@H]3COCC[C@@H]3O)nnc2c1C` (relative stereo) [Example 42, 3-(trans-4-hydroxytetrahydro-2H-pyran-3-yl)-6-((6-(1H-imidazol-1-yl)pyridin-3-yl)methyl)-7,8-dimethyl-1,2,3-benzotriazin-4(3H)-one] are 100% and 31 nM.
With `Cc1c(Cc2ccc(-c3ccn(C)n3)cc2)cc2c(=O)n([C@H]3COCC[C@@H]3O)nnc2c1C` (relative stereo) [Example 46, 3-(trans-4-hydroxytetrahydro-2H-pyran-3-yl)-7,8-dimethyl-6-(4-(1-methyl-1H-pyrazol-3-yl)benzyl)-1,2,3-benzotriazin-4(3H)-one], the “activity (%) at 10 μM” value worked out at 97% and the EC50 came out at 32 nM.
For `Cc1c(Cc2ccc(-c3cn(C)nn3)cc2)cc2c(=O)n([C@H]3CCC[C@@H]3O)cnc2c1C` (single isomer, unassigned) [Example 22, 3-(trans-2-hydroxycyclopentyl)-7,8-dimethyl-6-(4-(1-methyl-1H-1,2,3-triazol-4-yl)benzyl)quinazolin-4(3H)-one], in that order: 95% and 79 nM.
On the same counts, the results for `Cc1c(Cc2ccc(-c3cn(C)nn3)cc2)cc2c(=O)n([C@@H]3CCC[C@H]3O)cnc2c1C` (single isomer, unassigned) [Example 23, 3-(trans-2-hydroxycyclopentyl)-7,8-dimethyl-6-(4-(1-methyl-1H-1,2,3-triazol-4-yl)benzyl)quinazolin-4(3H)-one] are 88% and 13 nM.
On the same counts, the results for `Cc1c(Cc2ccc(-c3cnn(C)c3)nc2)cc2c(=O)n([C@H]3CCC[C@@H]3O)cnc2c1C` (single isomer, unassigned) [Example 50, 3-(trans-2-hydroxycyclopentyl)-7,8-dimethyl-6-((6-(1-methyl-1H-pyrazol-4-yl)pyridin-3-yl)methyl)quinazolin-4(3H)-one] are 102% and 6.5 nM.
